Experimental data as given in PubChem BioAssay (NCI).
Values joined by “and” are separate entries in the source; they are usually repeats but may differ in a detail not shown here. Equal values may be shown once.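 1) Cells in 96-well plates. 2) Compound, 48 h, 5 concentrations. 3) Linear interpolation between surrounding doses. 4) Unreached endpoint = highest concentration. GI50 = concentration required for 50% inhibition of growth. TGI denotes the concentration required for complete inhibition of growth.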

Assays:
Test in all cases: NCI anticancer screen, dose series, 48 h
SNB-75 CNS = tested on: SNB-75 CNS
CAKI-1 renal = tested on: CAKI-1 renal
SK-MEL-28 melanoma = tested on: SK-MEL-28 melanoma
NCI-H23 lung = tested on: NCI-H23 lung
M14 melanoma = tested on: M14 melanoma
RXF 393 renal = tested on: RXF 393 renal
OVCAR-3 ovarian = tested on: OVCAR-3 ovarian
OVCAR-5 ovarian = tested on: OVCAR-5 ovarian
HOP-92 NSCLC = tested on: HOP-92 NSCLC
SF-539 CNS = tested on: SF-539 CNS

Compound | TGI (SNB-75 CNS) | TGI (CAKI-1 renal) | TGI (SK-MEL-28 melanoma) | TGI (NCI-H23 lung) | TGI (M14 melanoma) | TGI (RXF 393 renal) | TGI (OVCAR-3 ovarian) | TGI (OVCAR-5 ovarian) | TGI (HOP-92 NSCLC) | TGI (SF-539 CNS) | GI50 (SNB-75 CNS) | GI50 (CAKI-1 renal) | GI50 (M14 melanoma) | GI50 (RXF 393 renal) | GI50 (OVCAR-3 ovarian) | GI50 (OVCAR-5 ovarian) | GI50 (HOP-92 NSCLC) | GI50 (SF-539 CNS) | GI50 (SK-MEL-28 melanoma) | GI50 (NCI-H23 lung)
O=c1[nH]c2cc(Cl)ccc2nc1/C(=N\O)C(O)c1ccc(Cl)cc1Cl (centres undefined) | > 100 µM | > 100 µM | > 100 µM | > 100 µM | > 100 µM | > 100 µM | > 100 µM | > 100 µM | > 100 µM | > 100 µM | – | – | – | – | – | – | – | – | – | –
C[C@@]12CCCc3coc(c31)C(=O)c1cc3c(cc12)C(=O)C=CC3=O | > 1 µM and 38.2 µM | > 1 µM and 28.5 µM | > 1 µM | 29.7 µM | > 1 µM and 29.7 µM | > 1 µM and 29.1 µM | > 1 µM and 41.8 µM | > 1 µM and 36.4 µM | > 1 µM and 14.6 µM | > 1 µM and 30.1 µM | > 1 µM | > 1 µM | > 1 µM | > 1 µM | > 1 µM | > 1 µM | > 1 µM | < 1 µM | – | –
C=CCNC(=O)N(CCC)CCCCC(NC(C)=O)C(=O)NCc1ccccc1 (centres undefined) | > 100 µM | > 100 µM | > 100 µM | > 100 µM | > 100 µM | > 100 µM | > 100 µM | > 100 µM | > 100 µM | > 100 µM | – | – | – | – | – | – | – | – | – | –
C[C@]12CC[C@@H]3c4ccc(O)cc4CC[C@H]3[C@@H]1CC[C@@H]2NS(=O)(=O)c1cccc(F)c1 | 15 µM | 13.5 µM | 17.8 µM | 13.5 µM | 11.9 µM | 7.4 µM | – | 16.3 µM | 8.64 µM | 14.1 µM | 2.93 µM | 3.4 µM | 3.41 µM | 2.42 µM | – | 4.35 µM | 2.43 µM | 3.91 µM | 4.81 µM | 3.19 µM
C1C[OH+]CCNCC[OH+]CC[OH+]CCN1.[Cl-].[Pt+4] | > 100 µM | > 100 µM | > 100 µM | > 100 µM | > 100 µM | > 100 µM | > 100 µM | – | > 100 µM | > 100 µM | > 100 µM | > 100 µM | > 100 µM | > 100 µM | > 100 µM | – | > 100 µM | > 100 µM | > 100 µM | > 100 µM
COC(=O)OCC1OC(N2C(=O)NC(=O)C(Br)C2N=[N+]=[N-])CC1OC(=O)OC (centres undefined) | > 100 µM | > 100 µM | > 100 µM | > 100 µM | > 100 µM | > 100 µM | > 100 µM | > 100 µM | > 100 µM | > 100 µM | – | – | – | – | – | – | – | – | – | –
CC1(C)O/C(=C\c2ccccc2)C(=O)/C(=C/c2ccccc2)O1 | > 100 µM | > 100 µM | > 100 µM | > 100 µM | > 100 µM | 47.6 µM | > 100 µM | 60.8 µM | > 100 µM | > 100 µM | – | – | – | – | – | – | – | – | – | –
CC(C)CNC(=O)O | > 100 µM | > 100 µM | > 100 µM | > 100 µM | > 100 µM | > 100 µM | > 100 µM | > 100 µM | > 100 µM | > 100 µM | – | – | – | – | – | – | – | – | – | –
